From patent US6479533B1, “Methods and compositions for the protection of mitochondria” (priority 1997, dated 2002)

Tests used:
Type in all cases: cell-based
[1] = tested on: mitochondria in mouse keratinocytes; assay: MTT assay after UV-B irradiation
Description: Mouse keratinocytes were pretreated with different concentrations of L-ergothioneine (unencapsulated) and then exposed to ultraviolet B radiation (UV-B), the shorter wavelength range of UV light present in sunlight which is responsible for significant photodamage to the skin. The light was generated by a FS20 sunlamp filtered with 2 sheets of Kodacel to eliminate light having a wavelength less than 280 nm.
(§1) This assay measures the specific activity of mitochondria to cleave the tetrazolium ring of the soluble dye MTT [3-(4,5-dimethylthiazol-2-yl)-2,5-diphenyl tetrazolium bromide] to form the insoluble blue formazan form. Living mitochondria metabolize MTT and make the blue formazan; dead mitochondria immediately stop forming blue formazan. In the MTT assay, mammalian cells are pretreated with L-ergothioneine and then treated with the mitochondrial damaging agent, in this example UV-B. MTT is then added and the formation of the blue dye is measured spectrophotometrically.
Table I provides the percent optical density of the formazan blue present relative to unexposed (control) mitochondria in cells for various UV-B levels, expressed as joules per square meter, and L-ergothioneine concentrations.
Mouse keratinocytes were pretreated with L-ergothioneine, both unencapsulated and encapsulated in liposomes (prepared as described below), at a final concentration of 12.5 μM. A control group was not treated with L-ergothioneine. The mouse keratinocytes were then exposed to UV-B as in Example I.
The L-ergothioneine was encapsulated into liposomes composed of phosphatidyl choline, phosphatidyl ethanolamine, oleic acid and cholesteryl hemisuccinate in a ratio of 2:2:1:5. To calculate the concentration of entrapped L-ergothioneine, the liposomes are extracted with chloroform, and the OD258 is measured in the aqueous layer. The concentration of L-ergothioneine is calculated using the ε258 of L-ergothioneine of 14,500. The final concentration of L-ergothioneine in the purified liposome was about 1.1 mM. […] Unencapsulated L-ergothioneine was adjusted to the same concentration by dilution.
The effect of the UV-B on the pretreated and untreated mitochondria was determined by the MTT assay as in Example 1.
Table 3 provides the percent optical density of the formazan blue present in each case relative to unexposed (control) mitochondria in cells for various UV-B levels.

[2] = tested on: mitochondria in mouse keratinocytes; assay: MTT assay after alloxan exposure
Description: as §1
Mouse keratinocytes were pretreated with various concentrations of L-ergothioneine (unencapsulated) and then exposed to alloxan at various concentrations.
The effect of alloxan on the pretreated mitochondria was determined by the MTT assay as in Example 1.
Table 2 provides the percent optical densities of the formazan blue present relative to unexposed (control) mitochondria in cells for various alloxan concentrations, and L-ergothioneine concentrations.

[3] = tested on: mitochondrial membranes in mouse keratinocytes; assay: JC-1 assay (fluorescence microscopy) after alloxan
Experimental: Mouse keratinocytes were pretreated with L-ergothioneine (unencapsulated) at 1 mM and then treated with 8 mM alloxan. One day after treatment with L-ergothioneine, the cells were treated for 10 minutes with JC-I and the cells examined by fluorescence microscopy.
The JC-1 assay makes use of the fluorescent dye JC-1 (5,5′, 6,6′-tetrachloro-1, 1′, 3,3′-tetrathylbenzimidazolecarbocyanine iodide) (Molecular Probes Inc., Eugene, OR). This dye immediately and specifically intercalates into mitochondrial membranes. In living, charged membranes the JC-1 dye is maintained in the membrane as a […], and fluoresces green. When the mitochondrial membrane is damaged, aggregation of the JC-1 dye into J-1 aggregates occurs and the fluorescence changes to orange. Orange coloration is then characteristic of mitochondrial membrane damage.

## C[N+](C)(C)[C@@H](Cc1c[nH]c(=S)[nH]1)C(=O)[O-] [L-ergothioneine]
[1]; 12.5 μM, UV-B 100 and 500 J/m^2
  protection of mitochondria from UV-B damage: significant but not complete protection
[1]; 0.1 mM L-ergothioneine, UV-B 0 J/m^2
  percent optical density of formazan blue relative to unexposed (control) mitochondria: 100.0%
[1]; 0.1 mM L-ergothioneine, UV-B 100 J/m^2
  percent optical density of formazan blue relative to unexposed (control) mitochondria: 95.7%
[1]; 0.1 mM L-ergothioneine, UV-B 200 J/m^2
  percent optical density of formazan blue relative to unexposed (control) mitochondria: 97.0%
[1]; 0.1 mM L-ergothioneine, UV-B 500 J/m^2
  percent optical density of formazan blue relative to unexposed (control) mitochondria: 91.0%
[1]; 0.5 mM L-ergothioneine, UV-B 100 J/m^2
  percent optical density of formazan blue relative to unexposed (control) mitochondria: 97.2%
[1]; 0.5 mM L-ergothioneine, UV-B 200 J/m^2
  percent optical density of formazan blue relative to unexposed (control) mitochondria: 99.4%
[1]; 0.5 mM L-ergothioneine, UV-B 500 J/m^2
  percent optical density of formazan blue relative to unexposed (control) mitochondria: 90.8%
[1]; 1 mM L-ergothioneine, UV-B 0 J/m^2
  percent optical density of formazan blue relative to unexposed (control) mitochondria: 100.0%
[1]; 1 mM L-ergothioneine, UV-B 100 J/m^2
  percent optical density of formazan blue relative to unexposed (control) mitochondria: 97.1%
[1]; 1 mM L-ergothioneine, UV-B 200 J/m^2
  percent optical density of formazan blue relative to unexposed (control) mitochondria: 103.9%
[1]; 1 mM L-ergothioneine, UV-B 500 J/m^2
  percent optical density of formazan blue relative to unexposed (control) mitochondria: 96.0%
[1]; UV-B 100 and 200 J/m^2, all three levels of L-ergothioneine (0.1, 0.5, 1 mM)
  mitochondrial viability: greater than 95%
[1]; highest UV-B dose (500 J/m^2)
  protection of mitochondria: still protected the mitochondria
[1]; unencapsulated, 12.5 μM, UV-B 0 J/m^2
  percent optical density of formazan blue relative to unexposed (control) mitochondria: 100.0%
[1]; unencapsulated, 12.5 μM, UV-B 100 J/m^2
  percent optical density of formazan blue relative to unexposed (control) mitochondria: 89.9%
[1]; unencapsulated, 12.5 μM, UV-B 500 J/m^2
  percent optical density of formazan blue relative to unexposed (control) mitochondria: 89.9%
[1]; unencapsulated, UV-B 100 and 500 J/m^2
  concentration at which active (protection from UV-B): ≤ 12.5 µM
[2]; 0.1 mM L-ergothioneine, alloxan 0 mM
  percent optical density of formazan blue relative to unexposed (control) mitochondria: 100.0%
[2]; 0.1 mM L-ergothioneine, alloxan 0.625 mM
  percent optical density of formazan blue relative to unexposed (control) mitochondria: 86.3%
[2]; 0.1 mM L-ergothioneine, alloxan 1.25 mM
  percent optical density of formazan blue relative to unexposed (control) mitochondria: 80.8%
[2]; 0.1 mM L-ergothioneine, alloxan 2.5 mM
  percent optical density of formazan blue relative to unexposed (control) mitochondria: 81.1%
[2]; 0.1 mM L-ergothioneine, alloxan 5 mM
  percent optical density of formazan blue relative to unexposed (control) mitochondria: 73.3%
[2]; 0.1 mM L-ergothioneine, alloxan 10 mM
  percent optical density of formazan blue relative to unexposed (control) mitochondria: 74.9%
[2]; 0.1 mM L-ergothioneine, alloxan 20 mM
  percent optical density of formazan blue relative to unexposed (control) mitochondria: 79.1%
[2]; 0.5 mM L-ergothioneine, alloxan 0 mM
  percent optical density of formazan blue relative to unexposed (control) mitochondria: 100.0%
[2]; 0.5 mM L-ergothioneine, alloxan 0.625 mM
  percent optical density of formazan blue relative to unexposed (control) mitochondria: 88.3%
[2]; 0.5 mM L-ergothioneine, alloxan 1.25 mM
  percent optical density of formazan blue relative to unexposed (control) mitochondria: 81.0%
[2]; 0.5 mM L-ergothioneine, alloxan 2.5 mM
  percent optical density of formazan blue relative to unexposed (control) mitochondria: 81.0%
[2]; 0.5 mM L-ergothioneine, alloxan 5 mM
  percent optical density of formazan blue relative to unexposed (control) mitochondria: 73.3%
[2]; 0.5 mM L-ergothioneine, alloxan 10 mM
  percent optical density of formazan blue relative to unexposed (control) mitochondria: 74.1%
[2]; 0.5 mM L-ergothioneine, alloxan 20 mM
  percent optical density of formazan blue relative to unexposed (control) mitochondria: 78.4%
[2]; 0.5 mM L-ergothioneine, alloxan 40 mM
  percent optical density of formazan blue relative to unexposed (control) mitochondria: 72.3%
[2]; 1 mM L-ergothioneine, alloxan 0 mM
  percent optical density of formazan blue relative to unexposed (control) mitochondria: 100.0%
[2]; 1 mM L-ergothioneine, alloxan 0.625 mM
  percent optical density of formazan blue relative to unexposed (control) mitochondria: 91.2%
[2]; 1 mM L-ergothioneine, alloxan 1.25 mM
  percent optical density of formazan blue relative to unexposed (control) mitochondria: 86.5%
[2]; 1 mM L-ergothioneine, alloxan 2.5 mM
  percent optical density of formazan blue relative to unexposed (control) mitochondria: 82.9%
[2]; 1 mM L-ergothioneine, alloxan 10 mM
  percent optical density of formazan blue relative to unexposed (control) mitochondria: 68.5%
[2]; 1 mM L-ergothioneine, alloxan 20 mM
  percent optical density of formazan blue relative to unexposed (control) mitochondria: 72.7%
[2]; 1 mM L-ergothioneine, alloxan 40 mM
  percent optical density of formazan blue relative to unexposed (control) mitochondria: 66.6%
[2]; dose-responsive portion of the curve (alloxan up to 5 mM)
  protection from oxidative damage by alloxan: afforded protection from oxidative damage
[3]; 1 mM L-ergothioneine alone, no alloxan
  JC-1 fluorescence colour (orange = mitochondrial membrane damage): green fluorescence
[3]; 1 mM L-ergothioneine pretreatment, then 8 mM alloxan
  JC-1 fluorescence colour (orange = mitochondrial membrane damage): much less orange than cells treated with alloxani alone
